In ChEMBL document CHEMBL2074061, “Inhibition of transport across the hepatocyte canalicular membrane by the antibiotic fusidate” (Biochem Pharmacol, 2002) one finds Ki data, which are given here for one molecule.

Assay [1] deals with T1, ATP-binding cassette sub-family C member 2 (Rattus norvegicus, UniProt Q63120). Nature of the assay: TP_TRANSPORTER: inhibition of LTC4 uptake in canalicular membrane vesicles of rat liver. The class given is functional, cell membranes, Canalicular membrane vesicle.
Assay [2] concerns the target T1, ATP-binding cassette sub-family C member 2. In words: TP_TRANSPORTER: inhibition of LTC4 uptake in Mrp2-expressing HEK cells. The class given is functional, cell-based, HEK293.
Assay [3] has the same target. Nature of the assay: TP_TRANSPORTER: inhibition of E217betaG uptake in canalicular membrane vesicles of rat liver. Format: functional, cell membranes, Canalicular membrane vesicle.
The target in another assay is T2, Bile salt export pump (Rattus norvegicus, UniProt O70127).
T2 sequence (O70127 whole entry): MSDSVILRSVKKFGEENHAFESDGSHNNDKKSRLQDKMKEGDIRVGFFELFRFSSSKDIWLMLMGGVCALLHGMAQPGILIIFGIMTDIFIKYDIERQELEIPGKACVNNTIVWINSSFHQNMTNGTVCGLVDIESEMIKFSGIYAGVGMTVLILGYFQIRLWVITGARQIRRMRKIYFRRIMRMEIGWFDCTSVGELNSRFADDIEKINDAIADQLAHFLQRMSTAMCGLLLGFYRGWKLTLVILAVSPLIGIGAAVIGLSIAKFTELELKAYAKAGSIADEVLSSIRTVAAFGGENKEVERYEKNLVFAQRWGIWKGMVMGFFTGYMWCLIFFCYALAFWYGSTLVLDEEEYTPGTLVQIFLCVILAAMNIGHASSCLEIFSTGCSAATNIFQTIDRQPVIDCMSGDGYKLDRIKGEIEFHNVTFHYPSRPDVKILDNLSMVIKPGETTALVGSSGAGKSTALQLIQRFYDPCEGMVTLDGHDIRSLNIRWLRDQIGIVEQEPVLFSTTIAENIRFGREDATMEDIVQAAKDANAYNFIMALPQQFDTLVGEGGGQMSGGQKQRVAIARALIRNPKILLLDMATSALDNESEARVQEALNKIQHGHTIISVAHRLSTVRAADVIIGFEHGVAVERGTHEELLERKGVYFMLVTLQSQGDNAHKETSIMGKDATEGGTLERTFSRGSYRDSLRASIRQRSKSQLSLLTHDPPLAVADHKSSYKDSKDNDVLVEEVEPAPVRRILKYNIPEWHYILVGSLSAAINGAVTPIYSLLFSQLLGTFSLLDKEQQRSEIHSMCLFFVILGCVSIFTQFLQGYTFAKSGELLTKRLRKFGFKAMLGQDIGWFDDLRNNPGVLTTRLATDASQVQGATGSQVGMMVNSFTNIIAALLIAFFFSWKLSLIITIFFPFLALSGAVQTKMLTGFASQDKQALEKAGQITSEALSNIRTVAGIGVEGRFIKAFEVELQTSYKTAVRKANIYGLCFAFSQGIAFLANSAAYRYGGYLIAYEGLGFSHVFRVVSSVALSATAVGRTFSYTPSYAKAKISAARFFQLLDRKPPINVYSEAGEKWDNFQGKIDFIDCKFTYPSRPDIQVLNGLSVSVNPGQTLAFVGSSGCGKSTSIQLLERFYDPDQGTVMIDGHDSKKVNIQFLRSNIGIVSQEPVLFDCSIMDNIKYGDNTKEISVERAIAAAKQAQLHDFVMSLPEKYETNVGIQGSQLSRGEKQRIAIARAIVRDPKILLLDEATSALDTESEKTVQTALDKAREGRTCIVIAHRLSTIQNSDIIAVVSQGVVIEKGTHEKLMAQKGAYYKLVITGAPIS
Nature of the assay: TP_TRANSPORTER: inhibition of Taurocholate uptake in canalicular membrane vesicles of rat liver. Format: functional, cell membranes, Canalicular membrane vesicle.

T1 sequence (Q63120 whole entry): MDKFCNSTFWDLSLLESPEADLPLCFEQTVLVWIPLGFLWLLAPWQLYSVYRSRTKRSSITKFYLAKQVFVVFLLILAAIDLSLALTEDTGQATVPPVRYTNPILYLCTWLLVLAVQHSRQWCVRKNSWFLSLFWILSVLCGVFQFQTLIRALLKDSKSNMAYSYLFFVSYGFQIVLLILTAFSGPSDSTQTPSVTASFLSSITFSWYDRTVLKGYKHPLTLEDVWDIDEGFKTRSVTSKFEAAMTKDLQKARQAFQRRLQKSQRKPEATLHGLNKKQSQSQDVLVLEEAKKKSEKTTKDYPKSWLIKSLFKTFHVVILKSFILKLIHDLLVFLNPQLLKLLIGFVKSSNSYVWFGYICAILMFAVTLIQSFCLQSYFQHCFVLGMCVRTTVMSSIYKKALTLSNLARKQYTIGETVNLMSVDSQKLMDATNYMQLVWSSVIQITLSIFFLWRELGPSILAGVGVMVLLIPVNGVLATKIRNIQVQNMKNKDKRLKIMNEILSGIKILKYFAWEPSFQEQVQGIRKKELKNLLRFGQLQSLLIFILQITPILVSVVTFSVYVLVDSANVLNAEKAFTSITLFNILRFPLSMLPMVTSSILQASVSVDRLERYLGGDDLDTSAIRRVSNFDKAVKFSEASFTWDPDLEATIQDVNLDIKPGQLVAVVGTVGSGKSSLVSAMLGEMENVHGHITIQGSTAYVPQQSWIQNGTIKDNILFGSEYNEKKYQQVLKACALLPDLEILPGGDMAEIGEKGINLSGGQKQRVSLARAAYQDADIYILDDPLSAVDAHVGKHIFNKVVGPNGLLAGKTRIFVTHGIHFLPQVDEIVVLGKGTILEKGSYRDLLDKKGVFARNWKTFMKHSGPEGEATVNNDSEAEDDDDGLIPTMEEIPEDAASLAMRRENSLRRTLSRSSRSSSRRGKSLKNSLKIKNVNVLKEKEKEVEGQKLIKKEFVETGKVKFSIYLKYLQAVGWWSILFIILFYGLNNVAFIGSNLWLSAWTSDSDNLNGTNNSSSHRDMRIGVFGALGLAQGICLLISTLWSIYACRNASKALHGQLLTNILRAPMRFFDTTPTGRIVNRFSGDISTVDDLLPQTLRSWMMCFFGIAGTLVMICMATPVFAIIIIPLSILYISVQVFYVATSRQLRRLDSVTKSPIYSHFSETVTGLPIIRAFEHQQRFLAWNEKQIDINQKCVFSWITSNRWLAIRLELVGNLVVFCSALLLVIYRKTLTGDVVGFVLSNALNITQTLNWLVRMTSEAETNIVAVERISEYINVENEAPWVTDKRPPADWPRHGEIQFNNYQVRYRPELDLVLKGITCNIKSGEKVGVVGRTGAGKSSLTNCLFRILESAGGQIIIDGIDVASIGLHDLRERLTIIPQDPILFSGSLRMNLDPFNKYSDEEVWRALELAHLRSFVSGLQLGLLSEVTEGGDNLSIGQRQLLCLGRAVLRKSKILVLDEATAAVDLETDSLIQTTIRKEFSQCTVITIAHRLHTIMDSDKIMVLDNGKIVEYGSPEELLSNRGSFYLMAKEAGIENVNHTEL

In the case of `CC(=O)O[C@H]1C[C@@]2(C)[C@@H](C[C@@H](O)[C@H]3[C@@]4(C)CC[C@@H](O)[C@@H](C)[C@@H]4CC[C@@]32C)/C1=C(\CCC=C(C)C)C(=O)O` [FUSIDIC ACID], the inhibition constant (Ki) in assay [1] was 5.5 µM; in assay [2], 13 µM; in assay [3], 7.6 µM; at Bile salt export pump, 2.2 µM.

As a reminder, the Ki is the equilibrium dissociation constant of an inhibitor or competing ligand from its target.
